Results taken from publication doi:10.1101/2020.04.09.034306v1 (biorxiv, 2020).

Biological target: T1, ACE (angiotensin-I converting enzyme, from rabbit lung) (Oryctolagus cuniculus, UniProt P12822)
T1 sequence (P12822 34-1310): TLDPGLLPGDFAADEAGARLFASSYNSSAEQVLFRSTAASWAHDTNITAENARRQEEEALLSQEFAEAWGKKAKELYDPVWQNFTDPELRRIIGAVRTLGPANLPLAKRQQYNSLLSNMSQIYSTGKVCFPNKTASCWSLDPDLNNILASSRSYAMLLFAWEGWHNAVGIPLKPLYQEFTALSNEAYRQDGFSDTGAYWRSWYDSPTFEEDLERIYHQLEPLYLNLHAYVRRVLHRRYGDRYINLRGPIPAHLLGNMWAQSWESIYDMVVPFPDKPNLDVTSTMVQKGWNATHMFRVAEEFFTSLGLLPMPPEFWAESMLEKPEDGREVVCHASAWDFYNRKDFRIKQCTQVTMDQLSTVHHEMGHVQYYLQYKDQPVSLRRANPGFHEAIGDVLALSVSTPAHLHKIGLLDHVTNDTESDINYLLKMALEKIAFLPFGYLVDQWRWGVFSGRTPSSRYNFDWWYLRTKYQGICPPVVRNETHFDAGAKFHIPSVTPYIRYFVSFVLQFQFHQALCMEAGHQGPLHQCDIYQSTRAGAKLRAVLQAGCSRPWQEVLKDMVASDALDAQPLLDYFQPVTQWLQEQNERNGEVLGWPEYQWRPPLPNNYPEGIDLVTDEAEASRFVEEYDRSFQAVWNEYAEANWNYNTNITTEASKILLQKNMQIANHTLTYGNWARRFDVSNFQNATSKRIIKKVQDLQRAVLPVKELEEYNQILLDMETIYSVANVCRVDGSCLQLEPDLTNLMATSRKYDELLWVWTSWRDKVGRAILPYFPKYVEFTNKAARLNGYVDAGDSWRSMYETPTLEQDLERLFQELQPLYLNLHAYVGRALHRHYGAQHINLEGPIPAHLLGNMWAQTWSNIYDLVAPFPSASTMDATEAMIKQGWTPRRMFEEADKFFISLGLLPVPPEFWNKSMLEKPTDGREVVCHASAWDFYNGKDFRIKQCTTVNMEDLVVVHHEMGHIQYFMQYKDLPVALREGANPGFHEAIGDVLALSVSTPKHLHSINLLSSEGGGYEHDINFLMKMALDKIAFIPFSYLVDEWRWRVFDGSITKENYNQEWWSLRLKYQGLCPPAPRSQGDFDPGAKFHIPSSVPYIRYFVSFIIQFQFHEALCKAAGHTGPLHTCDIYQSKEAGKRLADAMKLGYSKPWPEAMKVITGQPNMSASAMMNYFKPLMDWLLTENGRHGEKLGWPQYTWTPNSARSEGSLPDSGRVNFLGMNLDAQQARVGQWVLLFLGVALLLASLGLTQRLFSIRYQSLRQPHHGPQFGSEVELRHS
Assay: hippuric acid release from HHL, cyanuric chloride colour at […] nm
Type: biochemical

IC50: 764 nM
SMILES: NCCCC[C@H](N[C@@H](CCc1ccccc1)C(=O)O)C(=O)N1CCC[C@H]1C(=O)O [Lisinopril]
